In PMC12555100, “Dextromethorphan Versus Dextrorphan: A Quantitative Comparison of Antitussive Potency Following Separate Administration of Metabolite” (Journal of Clinical Pharmacology, 2025):
Read-outs that look alike come from different tables or passages of the source.

How the values were obtained:
[1] = Population pharmacokinetic model (joint parent drug-metabolite model; two-compartment model for DOR given on its own); assay type: in vivo, human; conditions: for Vd/F / Between‐subject variability of V/F: after administration of DEX; for Vd/F: taken as equal for DEX and DOR, read-out: V/F, volume of distribution; for Between‐subject variability of V/F: common to DEX and DOR
Method: Pharmacokinetic/pharmacodynamic analysis (PKPD) of DEX and DOR was conducted using non‐linear mixed effects modelling with Monolix software, 2024R1 (Lixoft SAS, Antony, France). The analysis followed a sequential approach, where the PK parameters of both compounds were estimated initially, and then these were used alongside the cough data to build the PK/PD model. The model components are described below:
A joint parent drug‐metabolite model[26] (Figure 1) was considered for DEX and DOR following administration of DEX with first‐pass effect and without dose apportionment. Different goodness‐of‐fit factors, such as corrected Bayesian information criterion (BICc), various diagnostic plots, such as visual predictive check used for final model selection. This model assumed a one‐compartment model for both compounds and unidirectional transformation of the parent drug to the metabolite in DEX arm of the study. The distribution of DOR after its administration on its own in a separate arm of the study was considered to follow a two‐compartment model. Inter‐individual variability of PK parameters was assumed to be log‐normally distributed. Proportional error model was used to model the intra‐individual variability.
Figure 1 Schematic representation of the joint parent drug‐metabolite structural model with first‐pass effect and without dose‐apportionment used to describe the pharmacokinetics of dextromethorphan and dextrorphan following administration of dextromethorphan. F, bioavailability of the parent drug; DEX dose, dose of dextromethorphan; ka(DORDEX), absorption constant of dextromethorphan; ka(DOR), absorption constant of dextrorphan; kpm, transformation rate constant from parent to metabolite; VDEX and VDOR_DEX are the volume of the central compartment for the dextromethorphan and dextrorphan, respectively which are considered to be equal; k(DEX), elimination rate constant for dextromethorphan by other pathways; k(DOR), the elimination constant of dextrorphan.
As shown, the concentration of DOR formed by the metabolism of DEX is higher than that of the DOR after preformed DOR is administered on its own. The joint parent drug‐metabolite model with first‐pass effect and without dose apportionment best described the plasma concentration‐time profile of DEX and unconjugated DOR following administration of DEX. The two‐compartment model fitted well to the data of DOR from the administration of preformed DOR. The goodness‐of‐fit of the combined models could be seen in the observed versus predicted plots and visual predictive check graphs of the models (Figure 4). […] Since there was not enough data in the absorption phase, the value of first‐order absorption rate constant for both DEX and preformed DOR was fixed to the reported values of 2.6 h^−1 23. To prevent the identifiability problem, equal extravascular apparent volume of distributions were considered for the parent drug and the metabolite in the joint model. It is important to emphasize that the primary focus of this study is on characterizing the PKPD relationship rather than on developing a detailed PK model. While a mechanistic PK model can provide insights, our primary objective can also be achieved using any empirical PK model, provided it adequately describes the data and supports the PKPD link. The selection of a one‐compartment model for DEX and a two‐compartment model for DOR reflects this practical approach and ensures compatibility with the data under different conditions. The disparity of the disposition model for DOR may indicate that formation kinetics from DEX masks the first phase of distribution when assessing the kinetics of formed DOR, whilst this becomes evident under direct administration of DOR.

[2] = system: guinea pig brain slices; set-up: method as in PMID 2897648; conditions: cited from earlier work
[3] = Plasma concentrations of DEX and unconjugated DOR (HPLC), model-independent pharmacokinetics; assay type: in vivo, human; conditions: for 24‐h plasma concentration: almost all subjects (except in 2 cases); for AUC / Cmax / Tmax: both sexes, human, oral
Source text: The clinical trial has been performed according to the Declaration of Helsinki and was approved by the North Sheffield Research and Ethics Committee (approval number NS98/183). All participants enrolled into the clinical trial have given informed consent. Data were collected from twenty‐three healthy non‐smoker volunteers (12 male) aged 19‐51 years who took part in a double‐blind randomized placebo controlled cross‐over study. […] The exclusion criteria were respiratory tract infection or acute cough within the last 4 weeks, receiving any medication within previous 2 weeks, and any medical condition which may interfere with the study. Preceding the visit day, the volunteer was asked to fast for 8 h, abstain from alcohol, and abstain from caffeinated drinks throughout the study day. Written informed consent was obtained from all volunteers. The study was approved by the […] Research and Ethics Committee. Subjects' cough response to citric acid challenge test was studied on three separate occasions (separated at least 7 days apart) following administration of (i) placebo; (ii) 40.5 mg dextromethorphan hydrobromide; (iii) 44.6 mg of dextrorphan‐D‐tartrate. The order of treatments (placebo, DEX, and DOR) was randomized across participants using a balanced Latin square design to ensure equal distribution of sequence effects. Blood samples for PK analysis were taken periodically (at 0, 1, 2, 3, 4, 5, 6, 8, 10, 12, and 24 h post administration of DEX and DOR).
Plasma concentrations of DEX and unconjugated DOR were determined using high‐performance liquid chromatography with fluorometric detection according to the method of Chen et al.[25] The intra‐assay coefficient of variation for these analyses at a concentration of 2.5 ng/mL ranged from 6% to 13%. The lower limits of quantification were determined to be 0.3 ng/mL for DOR and 0.5 ng/mL for DEX.
The percent of change in cough number relative to the baseline (t = 0) was plotted against time and the maximum reduction in cough response (Emax) and its […] (TEmax) were determined. The area under the percent of reduction in cough number against time between 0 until 24 h (AUEC0‐24 h) was calculated using the trapezoidal rule. The correlation between AUEC0‐24 h and area under plasma concentration time between zero and 24 h (AUC0‐24 h) of DEX, (endogenously) formed DOR and directly administered DOR was statistically examined using Spearman rank correlation test. The Friedman test (followed by Dunn's multiple comparison) was used to compare the AUC values of DEX and DOR, as well as the AUEC values, between the different arms of the study.

[4] = both sexes, human, plasma, oral, population estimate
[5] = plasma, mean, plasma, the administered compound itself (40.5 mg DEX HBr or 44.6 mg DOR-D-tartrate), unconjugated DOR, read-out: AUC0‐24 h, mean
[6] = plasma, mean, plasma, the administered compound itself (40.5 mg DEX HBr or 44.6 mg DOR-D-tartrate), unconjugated DOR, read-out: Cmax, mean
[7] = plasma, mean, plasma, the administered compound itself (40.5 mg DEX HBr or 44.6 mg DOR-D-tartrate), unconjugated DOR, read-out: Tmax, mean
[8] = plasma, median, plasma, the administered compound itself, read-out: AUC0‐24 h, median
[9] = plasma, median, plasma, the administered compound itself, read-out: Tmax, median
[10] = population PK model, direct administration of DOR
[11] = population estimate, after direct administration of DOR

Compound	Vd/F [1, 4] [L]	Between‐subject variability of V/F ([1]; population PK model) [CV%]	Antiepileptic activity [2]	24‐h plasma concentration [3]	AUC [3, 5] [ng·h/mL]	Cmax [3, 6] [ng/mL]	Tmax [3, 7] [h]	AUC [3, 8] [ng·h/mL]	Tmax [3, 9] [h]	other results
COc1ccc2c(c1)[C@]13CCCC[C@@H]1[C@H](C2)N(C)CC3 [DEX, dextromethorphan]	4870	48	possess antiepileptic activity	below the limit of quantitation	26.7	3.5	1.8	16.7	1	k el ([1]; both sexes, human, plasma, oral, population estimate, read-out: k(DEX), elimination rate constant for dextromethorphan by other pathways (converted)): 2.78e-05 s⁻¹; Between‐subject variability of k(DEX) ([1]; population PK model): 108 CV%; Between‐subject variability of kpm ([1]; population PK model): 43 CV%; kpm, transformation rate constant from parent (dextromethorphan) to metabolite (dextrorphan) ([1]; population estimate): 0.04 h⁻¹; Cmax, median ([3]; median, plasma, the administered compound itself): 2.2 ng/mL
CN1CC[C@@]23CCCC[C@@H]2[C@@H]1Cc1ccc(O)cc13 [DOR, dextrorphan]	4870	48	possess antiepileptic activity	below the limit of quantitation	17.4	4.1	1.1	18.9	1	Between‐subject variability of k(DOR) ([1]; population PK model): 32 CV%; Between‐subject variability of V1/F(DOR) [1, 10]: 32 CV%; Between‐subject variability of k12(DOR) [1, 10]: 196 CV%; Between‐subject variability of k21(DOR) [1, 10]: 299 CV%; k(DOR), elimination constant of dextrorphan ([1]; population estimate): 0.2 h⁻¹; V1/F(DOR), volume of the central compartment [1, 11]: 6984 L; k12(DOR), transfer rate constant central to peripheral [1, 11]: 0.57 h⁻¹; k21(DOR), transfer rate constant peripheral to central [1, 11]: 0.60 h⁻¹; Cmax and Tmax of formed DOR compared with direct administration of DOR ([3]; Friedman and Dunn's tests): not statistically different; AUC0−24 h of formed DOR (from DEX metabolism) compared with direct administration of DOR ([3]; Friedman and Dunn's tests, P‐value = .003, higher molar dose of DOR than of DEX): significantly higher; Cmax ([3]; plasma, median, plasma, the administered compound itself, read-out: Cmax, median): 3.8 ng/mL; Plasma concentration of DOR relative to DEX after administration of DEX ([3]; majority of measurement times): up to twofold higher
